Here are results for one compound from patent US20140127231A1, “p38 MAPK Pathway Inhibitors as Female-Specific Therapeutics” (UNIVERSITY OF VERMONT, priority 2012, published 2014).

Entries after “also recorded” stand apart in the source; their conditions may differ.

The test system of this test is TH17 and TH1 cells in CNS-infiltrating cells. Put plainly: CNS-infiltrating cells of treated EAE mice, intracellular cytokine staining and flow cytometry. The class given is in vivo, C57BL/6J (B6) mice. The conditions noted are these: female B6 mice treated daily, D30 post-immunization. The source says: Female B6 mice were immunized for EAE as described for FIG. 1 and treated daily with carrier or SB. On D30 post-immunization, CNS (brain and spinal cord) cells were harvested and analyzed by intracellular staining and flow cytometry. Relative percentages (out of CD4+TCRβ+ population) of IL-17+, IFN-γ+, or IL-17+ IFN-γ+ cells (FIG. 2A), and percentages of CD4+TCRβ+ cells (out of CD45+ cells) (FIG. 2B). DLN cells were collected on D20 and restimulated with MOG35-55 for 3 days. Production of IFN-γ+(FIG. 2C) or IL-17 (FIG. 2D) was assessed by ELISA.
EAE was induced in female C57BL/6J mice as described previously (Noubade et al., 2007, J Clin Invest., 117(11):3507-3518). Mice were injected subcutaneously with an emulsion containing 200 μg of MOG35-55 peptide ([…] (SEQ ID NO: 1) and complete Freund adjuvant (CFA; Sigma-Aldrich) supplemented with 200 μg of Mycobacterium tuberculosis H37RA (Difco Laboratories) in the posterior right and left flank; 1 week later, all mice were similarly injected at 2 sites on the right and left flank anterior of the initial injection sites (2×MOG35-55+CFA). Mice received 5 mg/kg/d SB203580 dihydrochloride (Tocris) by IP injection in a total volume of 200 μL or an equal volume of carrier every day from the day of immunization.
Animals were perfused with saline and brains and spinal cords removed. A single-cell suspension was obtained and passed through a 70-μm strainer. Mononuclear cells were obtained by Percoll gradient (37%/70%) centrifugation and collected from the interphase. Cells were washed and stimulated for 4 hours with PMA/ionomycin in the presence of brefeldin A (Golgi Plug; BD Biosciences). […]
To examine the mechanism of EAE prevention by SB, the TH1 and TH17 effector subsets were analyzed in treated female mice. […] On D30 post-immunization, CNS (brain and spinal cord) cells were harvested and analyzed by intracellular staining and flow cytometry. […] Draining lymph node (DLN) cells were collected on D20 and restimulated with MOG35-55 for 3 days, and production of IFN-γ and IL-17 was assessed by ELISA.

In the case of `C[S+]([O-])c1ccc(-c2nc(-c3ccncc3)c(-c3ccc(F)cc3)[nH]2)cc1` (stereo not drawn) [SB203580], the “Percentage or number of infiltrating CD4+ T cells in the CNS” value is given as “did not decrease the percentage or number of infiltrating CD4+ T cells”. For the same compound, the “IFN-γ production by TH1 cells” value (CNS cells) is “did not suppress IFN-γ production”. In addition, where the note is “CNS cells, listed as SB”, the “IL-17 production by TH17 cells” value is recorded as “inhibits IL-17 production by TH17 cells; also recorded: specifically inhibited IL-17 production; also recorded: only partially inhibits IL-17 production”.
